Measured values published in US6046018A, “Highly sensitive method for assaying chiro-inositol and compositions for the assay” (priority 1997, dated 2000).
“And” between values parts separate entries of the source, which are not always exact repeats. Equal values may be shown once.

Legend:
[1] = test system: dehydrogenase which catalyses chiroinositol (Bacillus sp. No. 3 origin); assay: Km value; type: biochemical
Description: 100 mM glycine-NaOH buffer (pH 11.0)
1 mM NAD (Oriental Yeast Corp., Japan)
10 mM D-chiroinosiol (Wako Pure Chemicals Inc., Japan)
The above reaction solution 1 ml in quartz cell is set in spectrophotometer which is (controlled at 37° C. After over 5 minutes incubation, aliquot diluted enzyme solution 20 μl is added and stirred. Absorption changes per minute at A340 are measured to obtain initial reaction rate and to calculate relative activity.
Km values are measured at various concentrations using 10 mM
D-chiroinositol and mM NAD.
Km for thio-NAD is measured by replacing NAD to thio-NAD.

[2] = test system: dehydrogenase which catalyses chiroinositol (Bacillus sp. No. 3 origin); assay: Substrate specificity (Table 1); type: biochemical; conditions: equal concentration of substrates; glycine-NaOH pH 9.8, thio-NAD/NADH cycling
Description: Substrate specificity is assayed by using following reaction solution at the equal concentration of substrates.
200 mM glycine-NaOH buffer (pH 9.8)
0.03 mM NADH (Oriental Yeast Corp., Japan)
100 U/ml dehydrogenase which catalyses chiroinosiol
2 Mm thio-NAD (Oriental Yeast Corp., Japan)
D-chiroinositol, galactose, fructose, mannitol, mannose; Japan, Wako Pure Chemicals Inc., myo-, epi-, scyllo-inositol U.S.A. SIGMA Corp.

[3] = test system: crude enzyme which catalyses chiroinositol, A. r. 1215 origin; assay: Km value for D-chiroinositol; type: biochemical, Agrobacterium rhizogenes 1215
Description: (§1) Km value for D-chiroinositol is shown. Measurement is performed by changing substrate concentration in the above assay method.

[4] = test system: crude enzyme which catalyses chiroinositol, S. r. 301 origin; assay: Km value for D-chiroinositol; type: biochemical, Streptomyces roseogriseus 301
Description: as §1

[5] = test system: crude enzyme which catalyses chiroinositol, A. r. 1215 origin; assay: Substrate specificity (Table 3); type: biochemical, Agrobacterium rhizogenes 1215; conditions: coenzyme replaced by thio-NADP
Text: (§2) In A. r. 1215 origin, the same assay method used in Bacillus sp. No. 3 is applied by replacing coenzyme to thio-NADP. In S. r. 301 origin, the reaction solution used for enzyme assay is used by replacing D-chiroinositol for various concentrations of substrates with adding constant concentration of enzyme solution to assay relative activities.

[6] = test system: crude enzyme which catalyses chiroinositol, S. r. 301 origin; assay: Substrate specificity (Table 3); type: biochemical, Streptomyces roseogriseus 301; design: concentration or dose not given beside the values; conditions: enzyme assay reaction solution, D-chiroinositol replaced by substrates
Text: as §2

[7] = test system: dehydrogenase which catalyses chiroinositol (Bacillus sp. No. 3 origin); assay: Initial rate of enzyme reaction with various coenzymes; type: biochemical; conditions: 10 mM D-chiroinositol, 1 mM coenzyme; for Initial rate of enzyme reaction: 37° C., at optimum pH; for Optimum pH for the coenzyme: 100 mM Gly-NaOH buffer
Description: 100 mM Gly-NaOH buffer approx. pH 10 (at optimum pH)
10 mM D-chiroinositol (Wako Pure Chemicals Inc., Japan)
1 mM Coenzyme (NAD(P), thio-NAD(P); Oriental Yeast
Optimum pH are pH 11.0 for NAD, deamino NAD and thio-NAD, pH 10.5 for acetyl NAD, and pH 10.0 for aldehyde NAD and NADP.
The above reaction solution 1 ml in quartz cell is set in spectrophotometer which is controlled at 37° C. After over 5 minutes incubation, enzyme solution 140 U/ml (NAD and deamino NAD; 14 U/ml) 20 μl is added and stirred. Absorption changes per minute in specific wavelength for each reduced coenzyme is measured to obtain initial reaction rate. (For NAD and deamino NAD, measured value is increased number by ten for adjusting the amount of enzyme.)

[8] = test system: crude enzyme which catalyses chiroinositol, A. r. 1215 origin; assay: Relative activities using various coenzymes (Table 2); type: biochemical, Agrobacterium rhizogenes 1215; conditions: activity using NAD is set as 100%
Text: (§3) The same as in the enzyme originated from Bacillus sp. No. 3.
(§4) The same as in the enzyme originated from Bacillus sp. No. 3. Relative activities using various coenzymes are shown in Table 2 (activity using NAD is set as 100%).

[9] = test system: crude enzyme which catalyses chiroinositol, S. r. 301 origin; assay: as above; type: biochemical, Streptomyces roseogriseus 301; conditions: activity using NAD is set as 100%
Text: as §3, §4

[10] = test system: dehydrogenase which catalyses chiroinositol (Bacillus sp. No. 3 origin); assay: Initial rate of enzyme reaction with various coenzymes; type: biochemical; conditions: thio-NAD forward reaction, NADH reverse reaction
[11] = NAD and deamino NAD values increased by ten for enzyme amount

Molecule	Relative activity [2]	Relative activity, A.r.1215 origin [5]	Relative activity, S.r.301 origin [6]	Optimum pH for the coenzyme [7]	Relative activity, A.r.1215 origin [8]	Relative activity, S.r.301 origin [9]	further results
O[C@H]1[C@H](O)[C@H](O)[C@@H](O)[C@H](O)[C@H]1O [D-chiroinositol]	100%	100%	100%				Km ([1]; NAD replaced by thio-NAD): 12.8 ± 0.5 mM; Km ([1]; coenzyme NAD): 5.2 ± 0.5 mM; Km [3]: 30.6 ± 1 mM; Km [4]: 27.6 ± 1 mM
NC(=O)c1ccc[n+]([C@@H]2O[C@H](COP(=O)([O-])OP(=O)(O)OC[C@H]3O[C@@H](n4cnc5c(N)ncnc54)[C@H](O)[C@@H]3O)[C@@H](O)[C@H]2O)c1 [NAD, nicotinamide adenine dinucleotide]				11.0 pH	190%	100%	Initial rate of enzyme reaction [7, 11]: 13 Abs/min.; Km ([1]; coenzyme NAD): 0.5 ± 0.1 mM
NC(=O)C1=CN([C@@H]2O[C@H](COP(=O)(O)OP(=O)(O)OC[C@H]3O[C@@H](n4cnc5c(N)ncnc54)[C@H](O)[C@@H]3O)[C@@H](O)[C@H]2O)C=CC1 [NADH]							Optimum pH of reaction in the cycling reaction [10]: ~10.0 pH
NC(=O)c1ccc[n+]([C@@H]2O[C@H](COP(=O)([O-])OP(=O)(O)OC[C@H]3O[C@@H](n4cnc5c(N)ncnc54)[C@H](OP(=O)(O)O)[C@@H]3O)[C@@H](O)[C@H]2O)c1 [NADP]				10.0 pH	1855%	0%	Initial rate of enzyme reaction [7]: 80 mAbs/min.
CC(=O)c1ccc[n+]([C@@H]2O[C@H](COP(=O)([O-])OP(=O)(O)OC[C@H]3O[C@@H](n4cnc5c(N)ncnc54)[C@H](O)[C@@H]3O)[C@@H](O)[C@H]2O)c1 [acetyl NAD, acetylpyridine adenine dinucleotide]				10.5 pH	26%	195%	Initial rate of enzyme reaction [7]: 260 mAbs/min.
Nc1ncnc2c1ncn2[C@@H]1O[C@H](COP(=O)(O)OP(=O)([O-])OC[C@H]2O[C@@H]([n+]3cccc(C=O)c3)[C@H](O)[C@@H]2O)[C@@H](O)[C@H]1O [aldehyde NAD, pyridine aldehyde adenine dinucleotide]				10.0 pH	15%	20%	Initial rate of enzyme reaction [7]: 140 mAbs/min.
NC(=O)c1ccc[n+]([C@@H]2O[C@H](COP(=O)([O-])OP(=O)(O)OC[C@H]3O[C@@H](n4cnc5c(=O)[nH]cnc54)[C@H](O)[C@@H]3O)[C@@H](O)[C@H]2O)c1 [deamino NAD, nicotinamide hypoxanthine dinucleotide]				11.0 pH	44%	110%	Initial rate of enzyme reaction [7, 11]: 12 Abs/min.
O[C@H]1[C@@H](O)[C@@H](O)[C@@H](O)[C@@H](O)[C@@H]1O [epi-inositol]	0%	0%	4%				
O=C(CO)[C@@H](O)[C@H](O)[C@H](O)CO [fructose]	0%	0%	0%				
OC[C@@H](O)[C@@H](O)[C@H](O)[C@H](O)CO [mannitol]	0%	0%	0%				
O[C@H]1[C@H](O)[C@@H](O)[C@H](O)[C@@H](O)[C@H]1O [myoinositol]	9%	33%	0%				
O[C@H]1[C@H](O)[C@@H](O)[C@H](O)[C@@H](O)[C@@H]1O [scylloinositol]	0%	0%	0%				
NC(=S)c1ccc[n+]([C@@H]2O[C@H](COP(=O)([O-])OP(=O)(O)OC[C@H]3O[C@@H](n4cnc5c(N)ncnc54)[C@H](O)[C@@H]3O)[C@@H](O)[C@H]2O)c1 [thio-NAD, thio-nicotinamide adenine dinucleotide]				11.0 pH	0%	6%	Initial rate of enzyme reaction [7, 11]: 2.5 Abs/min.; Km ([1]; NAD replaced by thio-NAD): 0.9 mM and 0.87 mM; Optimum pH of reaction in the cycling reaction [10]: ~10.5 pH
NC(=S)c1ccc[n+]([C@@H]2O[C@H](COP(=O)([O-])OP(=O)(O)OC[C@H]3O[C@@H](n4cnc5c(N)ncnc54)[C@H](OP(=O)(O)O)[C@@H]3O)[C@@H](O)[C@H]2O)c1 [thio-NADP]					269%	0%	
galactose	0%						
mannose	0%	10%	0%				
